Experimental data: US20240109917A1 (ACTELION PHARMACEUTICALS LTD, priority 2020, published 2024)

Experiments:
[1] = biological target: His6-TEV-PDGFRβ (557-1016) (Homo sapiens (Human), UniProt P09619); assay: PDGFRβ HTRF Assay; type: biochemical; details: read-out: PDGFR HTRF IC50
Procedure, shortened: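 Human PDGFRβ (557-1016) pre-incubated with compound for 30 min at RT in pH 7.5 HEPES/MgCl2/EGTA/Brij-35/DTT buffer. Reaction started with ATP and TK-biotin peptide, run 3 h at RT, then quenched with EDTA-containing Eu-cryptate antibody/streptavidin-XL665. HTRF 665/620 nm ratio read after 60 min; percent inhibition relative to DMSO and 10 μM imatinib controls.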

[2] = biological target: Tb-labeled inactive PDGFRβ (Homo sapiens (Human), UniProt P09619); assay: PDGFRβ LanthaScreen Assay; type: binding; details: read-out: PDGFR Lantha IC50
PDGFRβ = PDGFRβ (Rattus norvegicus (Rat), UniProt Q05030); assay: PDGFRβ Cellular Assay (PDGFRb P-Y751 HTRF in A10 cells stimulated with PDGF-BB); type: cell-based; details: read-out: PDGFR Cellular IC50
Procedure, shortened: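 Rat A10 cells, plated overnight, were treated with compound for 3 hours, then stimulated with PDGF-BB (working stock 100 ng/mL in 10% FBS medium). After lysis, PDGFRβ P-Y751 was detected by HTRF.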

Chain of Tb-labeled inactive PDGFRβ (P09619 33-1106): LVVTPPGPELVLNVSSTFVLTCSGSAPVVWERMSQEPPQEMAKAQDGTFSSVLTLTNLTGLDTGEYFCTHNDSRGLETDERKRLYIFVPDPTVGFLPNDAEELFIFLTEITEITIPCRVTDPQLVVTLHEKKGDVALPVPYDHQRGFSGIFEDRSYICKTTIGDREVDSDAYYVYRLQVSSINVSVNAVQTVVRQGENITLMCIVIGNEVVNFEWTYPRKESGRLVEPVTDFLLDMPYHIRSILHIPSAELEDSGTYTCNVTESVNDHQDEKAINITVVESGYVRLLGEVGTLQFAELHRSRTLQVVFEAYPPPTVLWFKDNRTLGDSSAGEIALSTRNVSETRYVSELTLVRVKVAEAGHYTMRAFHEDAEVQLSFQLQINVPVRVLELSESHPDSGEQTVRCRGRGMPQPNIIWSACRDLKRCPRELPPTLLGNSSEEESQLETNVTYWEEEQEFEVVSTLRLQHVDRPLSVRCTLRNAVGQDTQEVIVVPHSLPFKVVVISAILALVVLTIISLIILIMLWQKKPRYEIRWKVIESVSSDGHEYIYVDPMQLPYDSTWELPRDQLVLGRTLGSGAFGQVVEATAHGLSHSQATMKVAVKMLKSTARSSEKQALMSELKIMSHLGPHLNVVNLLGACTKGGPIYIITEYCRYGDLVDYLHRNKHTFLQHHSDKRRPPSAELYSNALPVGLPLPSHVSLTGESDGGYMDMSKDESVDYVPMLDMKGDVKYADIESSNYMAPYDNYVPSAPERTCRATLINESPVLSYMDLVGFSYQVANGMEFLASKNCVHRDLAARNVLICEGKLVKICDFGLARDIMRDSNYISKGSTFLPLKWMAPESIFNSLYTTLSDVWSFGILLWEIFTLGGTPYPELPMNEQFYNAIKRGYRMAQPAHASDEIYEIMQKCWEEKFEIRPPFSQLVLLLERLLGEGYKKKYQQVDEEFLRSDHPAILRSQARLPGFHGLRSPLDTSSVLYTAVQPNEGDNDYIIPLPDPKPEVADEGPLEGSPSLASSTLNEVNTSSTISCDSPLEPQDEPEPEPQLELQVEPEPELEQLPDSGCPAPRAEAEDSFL
Chain of His6-TEV-PDGFRβ (557-1016) (P09619 557-1016): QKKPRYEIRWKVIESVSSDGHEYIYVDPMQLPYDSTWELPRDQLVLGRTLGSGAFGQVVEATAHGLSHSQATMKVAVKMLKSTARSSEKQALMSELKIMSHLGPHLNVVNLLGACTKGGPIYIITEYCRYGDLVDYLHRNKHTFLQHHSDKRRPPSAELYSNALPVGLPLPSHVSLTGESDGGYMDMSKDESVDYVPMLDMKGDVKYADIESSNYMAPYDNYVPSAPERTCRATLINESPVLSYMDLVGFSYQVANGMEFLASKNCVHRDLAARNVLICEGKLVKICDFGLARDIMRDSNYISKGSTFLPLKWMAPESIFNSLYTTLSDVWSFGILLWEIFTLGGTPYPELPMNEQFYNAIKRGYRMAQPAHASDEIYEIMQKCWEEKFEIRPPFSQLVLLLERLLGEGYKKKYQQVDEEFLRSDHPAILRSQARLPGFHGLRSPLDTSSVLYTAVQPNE
Chain of PDGFRβ (Q05030 32-1097): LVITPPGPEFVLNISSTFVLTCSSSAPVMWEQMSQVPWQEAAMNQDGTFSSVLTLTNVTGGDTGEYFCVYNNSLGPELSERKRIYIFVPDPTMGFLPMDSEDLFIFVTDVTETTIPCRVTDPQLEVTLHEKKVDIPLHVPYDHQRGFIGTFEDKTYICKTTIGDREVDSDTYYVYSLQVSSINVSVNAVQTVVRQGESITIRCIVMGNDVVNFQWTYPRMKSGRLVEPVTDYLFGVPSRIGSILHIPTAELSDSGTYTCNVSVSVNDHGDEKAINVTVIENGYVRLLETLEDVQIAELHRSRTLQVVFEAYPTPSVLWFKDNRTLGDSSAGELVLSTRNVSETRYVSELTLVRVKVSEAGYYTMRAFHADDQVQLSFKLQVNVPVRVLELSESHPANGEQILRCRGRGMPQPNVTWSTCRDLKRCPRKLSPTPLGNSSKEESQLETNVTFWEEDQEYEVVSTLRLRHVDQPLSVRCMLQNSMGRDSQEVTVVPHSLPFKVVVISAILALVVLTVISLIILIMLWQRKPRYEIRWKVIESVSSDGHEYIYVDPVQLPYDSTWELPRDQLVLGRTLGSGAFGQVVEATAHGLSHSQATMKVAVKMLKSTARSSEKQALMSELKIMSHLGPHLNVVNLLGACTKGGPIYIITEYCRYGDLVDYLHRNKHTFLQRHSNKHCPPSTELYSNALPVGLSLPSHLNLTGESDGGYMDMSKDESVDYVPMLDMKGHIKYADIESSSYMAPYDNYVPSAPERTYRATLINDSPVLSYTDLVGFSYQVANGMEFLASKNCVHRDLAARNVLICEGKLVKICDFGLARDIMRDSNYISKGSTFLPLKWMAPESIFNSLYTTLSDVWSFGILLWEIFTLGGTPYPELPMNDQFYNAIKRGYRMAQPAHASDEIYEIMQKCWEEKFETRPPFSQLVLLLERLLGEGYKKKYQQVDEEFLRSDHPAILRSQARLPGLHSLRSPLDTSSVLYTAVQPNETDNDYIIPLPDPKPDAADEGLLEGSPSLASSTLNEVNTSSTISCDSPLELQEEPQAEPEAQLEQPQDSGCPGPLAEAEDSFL

SMILES | IC50 [1] [nM] | IC50 [2] [nM] | IC50 (PDGFRβ) [nM]
Cc1ncc(C(=O)NCCN2CCC3(CC3)C2)cc1NC(=O)c1cnn2cc(-c3cnn(C)c3C)sc12 [Example 170, N-(5-((2-(5-azaspiro[2.4]heptan-5-yl)ethyl)carbamoyl)-2-methylpyridin-3-yl)-2-(1,5-dimethyl-1H-pyrazol-4-yl)pyrazolo[5,1-b]thiazole-7-carboxamide] | 0.3 | 4.1 | 33.7
Cc1ncc(C(=O)NCCN2CCCC2(C)C)cc1NC(=O)c1cnn2cc(-c3cnn(C)c3)sc12 [Example 8, N-(5-((2-(2,2-dimethylpyrrolidin-1-yl)ethyl)carbamoyl)-2-methylpyridin-3-yl)-2-(1-methyl-1H-pyrazol-4-yl)pyrazolo[5,1-b]thiazole-7-carboxamide] | 0.4 | 4.7 | 43.6
Cc1ncc(C(=O)NCCN2CCC(F)(F)C2)cc1NC(=O)c1cnn2cc(-c3cnn(C)c3)sc12 [Example 120, N-(5-((2-(3,3-difluoropyrrolidin-1-yl)ethyl)carbamoyl)-2-methylpyridin-3-yl)-2-(1-methyl-1H-pyrazol-4-yl)pyrazolo[5,1-b]thiazole-7-carboxamide] | 0.4 | 4.5 | 9.3
COCCn1cc(-c2cn3ncc(C(=O)Nc4cc(C(=O)NCCN5CC(C)(C)C5)cnc4C)c3s2)cn1 [Example 166, N-(5-((2-(3,3-dimethylazetidin-1-yl)ethyl)carbamoyl)-2-methylpyridin-3-yl)-2-(1-(2-methoxyethyl)-1H-pyrazol-4-yl)pyrazolo[5,1-b]thiazole-7-carboxamide] | 0.7 | 13.9 | 233
Cc1ncc(C(=O)NCCN2CCC23CCC3)cc1NC(=O)c1cnn2cc(-c3cn(C)nc3C)sc12 [Example 175, N-(5-((2-(1-azaspiro[3.3]heptan-1-yl)ethyl)carbamoyl)-2-methylpyridin-3-yl)-2-(1,3-dimethyl-1H-pyrazol-4-yl)pyrazolo[5,1-b]thiazole-7-carboxamide] | 0.5 | 3.8 | 16.6
Cc1ncc(C(=O)NCCN2CC3CCC2CC3)cc1NC(=O)c1cnn2cc(-c3cnn(C4COC4)c3)sc12 [Example 144, N-(5-((2-(2-azabicyclo[2.2.2]octan-2-yl)ethyl)carbamoyl)-2-methylpyridin-3-yl)-2-(1-(oxetan-3-yl)-1H-pyrazol-4-yl)pyrazolo[5,1-b]thiazole-7-carboxamide] | 0.3 | 3.6 | 106
Cc1ncc(C(=O)NCCN2CC(F)(F)C2)cc1NC(=O)c1cnn2cc(-c3cnn(C)c3)sc12 [Example 125, N-(5-((2-(3,3-difluoroazetidin-1-yl)ethyl)carbamoyl)-2-methylpyridin-3-yl)-2-(1-methyl-1H-pyrazol-4-yl)pyrazolo[5,1-b]thiazole-7-carboxamide] | 0.3 | 5.3 | 47.6
Cc1ncc(C(=O)NCCN2CC3CCC2CC3)cc1NC(=O)c1cnn2cc(-c3cnn(C)c3C)sc12 [Example 171, N-(5-((2-(2-azabicyclo[2.2.2]octan-2-yl)ethyl)carbamoyl)-2-methylpyridin-3-yl)-2-(1,5-dimethyl-1H-pyrazol-4-yl)pyrazolo[5,1-b]thiazole-7-carboxamide] | 0.3 | 2.6 | 34.8
Cc1ncc(C(=O)NCCN2C3CCCC2CCC3)cc1NC(=O)c1cnn2cc(-c3cnn(C)c3)sc12 [Example 4, N-(5-((2-(9-azabicyclo[3.3.1]nonan-9-yl)ethyl)carbamoyl)-2-methylpyridin-3-yl)-2-(1-methyl-1H-pyrazol-4-yl)pyrazolo[5,1-b]thiazole-7-carboxamide] | 0.3 | 2.3 | 11.7
Cc1ncc(C(=O)NCCN2CC3CCC2CC3)cc1NC(=O)c1cnn2cc(-c3cccnc3)sc12 [Example 149, N-(5-((2-(2-azabicyclo[2.2.2]octan-2-yl)ethyl)carbamoyl)-2-methylpyridin-3-yl)-2-(pyridin-3-yl)pyrazolo[5,1-b]thiazole-7-carboxamide] | 0.3 | 5 | 36.2
Cc1ncc(C(=O)NCCN2CCC3(CC3)C2)cc1NC(=O)c1cnn2cc(-c3cn(C)nc3C)sc12 [Example 177, N-(5-((2-(5-azaspiro[2.4]heptan-5-yl)ethyl)carbamoyl)-2-methylpyridin-3-yl)-2-(1,3-dimethyl-1H-pyrazol-4-yl)pyrazolo[5,1-b]thiazole-7-carboxamide] | 0.3 | 2.6 | 18.2
COCCn1cc(-c2cn3ncc(C(=O)Nc4cc(C(=O)NCCN5CC6(CCC6)C5)cnc4C)c3s2)cn1 [Example 168, N-(5-((2-(2-azaspiro[3.3]heptan-2-yl)ethyl)carbamoyl)-2-methylpyridin-3-yl)-2-(1-(2-methoxyethyl)-1H-pyrazol-4-yl)pyrazolo[5,1-b]thiazole-7-carboxamide] | 0.6 | 17.4 | 371
Cc1ncc(C(=O)NCCN2CC(C)(C)C2)cc1NC(=O)c1cnn2cc(-c3cnn(C)c3)sc12 [Example 126, N-(5-((2-(3,3-dimethylazetidin-1-yl)ethyl)carbamoyl)-2-methylpyridin-3-yl)-2-(1-methyl-1H-pyrazol-4-yl)pyrazolo[5,1-b]thiazole-7-carboxamide] | 0.3 | 10.3 | 80.1
COCCN(CCNC(=O)c1cnc(C)c(NC(=O)c2cnn3cc(-c4cnn(C)c4)sc23)c1)C1CCC1 [Example 115, N-(5-((2-(cyclobutyl(2-methoxyethyl)amino)ethyl)carbamoyl)-2-methylpyridin-3-yl)-2-(1-methyl-1H-pyrazol-4-yl)pyrazolo[5,1-b]thiazole-7-carboxamide] | 0.4 | 4.7 | 13.3
COCCN(CCNC(=O)c1cnc(C)c(NC(=O)c2cnn3cc(-c4cnn(C)c4)sc23)c1)CCOC [Example 128, N-(5-((2-(bis(2-methoxyethyl)amino)ethyl)carbamoyl)-2-methylpyridin-3-yl)-2-(1-methyl-1H-pyrazol-4-yl)pyrazolo[5,1-b]thiazole-7-carboxamide] | 0.9 | 18.3 | 46.8
COCCn1nc(C)c(-c2cn3ncc(C(=O)Nc4cc(NC(=O)CCN5CC6CCC(C5)O6)cnc4C)c3s2)c1C [Example 102, N-(5-(3-(8-oxa-3-azabicyclo[3.2.1]octan-3-yl)propanamido)-2-methylpyridin-3-yl)-2-(1-(2-methoxyethyl)-3,5-dimethyl-1H-pyrazol-4-yl)pyrazolo[5,1-b]thiazole-7-carboxamide] | 1.3 | 1 | 21.8
COCCn1cc(-c2cn3ncc(C(=O)Nc4cc(C(=O)NCCN5CC6CCC5CC6)cnc4C)c3s2)cn1 [Example 142, N-(5-((2-(2-azabicyclo[2.2.2]octan-2-yl)ethyl)carbamoyl)-2-methylpyridin-3-yl)-2-(1-(2-methoxyethyl)-1H-pyrazol-4-yl)pyrazolo[5,1-b]thiazole-7-carboxamide] | 0.5 | 4.2 | 71.7
Cc1ncc(C(=O)NCCN2CC3(CCC3)C2)cc1NC(=O)c1cnn2cc(-c3cnn(C)c3)sc12 [Example 124, N-(5-((2-(2-azaspiro[3.3]heptan-2-yl)ethyl)carbamoyl)-2-methylpyridin-3-yl)-2-(1-methyl-1H-pyrazol-4-yl)pyrazolo[5,1-b]thiazole-7-carboxamide] | 0.6 | 19.6 | 134
Cc1ncc(C(=O)NCCN2CCCC23COC3)cc1NC(=O)c1cnn2cc(-c3cn(C)nc3C)sc12 [Example 176, N-(5-((2-(2-oxa-5-azaspiro[3.4]octan-5-yl)ethyl)carbamoyl)-2-methylpyridin-3-yl)-2-(1,3-dimethyl-1H-pyrazol-4-yl)pyrazolo[5,1-b]thiazole-7-carboxamide] | 0.5 | 3.1 | 29.1
Cc1ncc(NC(=O)CCCN2CCC[C@@H]2C)cc1NC(=O)c1cnn2cc(-c3cnn(C)c3)sc12 [Example 106, (S)-2-(1-methyl-1H-pyrazol-4-yl)-N-(2-methyl-5-(4-(2-methylpyrrolidin-1-yl)butanamido)pyridin-3-yl)pyrazolo[5,1-b]thiazole-7-carboxamide] | 1.3 | 67 | 461
Cc1ncc(C(=O)NCCN2CCC3(CC3)C2)cc1NC(=O)c1cnn2cc(-c3cnn(C)c3)sc12 [Example 118, N-(5-((2-(5-azaspiro[2.4]heptan-5-yl)ethyl)carbamoyl)-2-methylpyridin-3-yl)-2-(1-methyl-1H-pyrazol-4-yl)pyrazolo[5,1-b]thiazole-7-carboxamide] | 0.3 | 7.1 | 55.5
Cc1ncc(NC(=O)CCN2CCC3(CC3)C2)cc1NC(=O)c1cnn2cc(-c3cnn(C)c3)sc12 [Example 104, N-(5-(3-(5-azaspiro[2.4]heptan-5-yl)propanamido)-2-methylpyridin-3-yl)-2-(1-methyl-1H-pyrazol-4-yl)pyrazolo[5,1-b]thiazole-7-carboxamide] | 0.4 | 9.8 | 9.2
Cc1ncc(C(=O)NCCN2CC3CC(C3)C2)cc1NC(=O)c1cnn2cc(-c3cnn(C)c3)sc12 [Example 5, N-(5-((2-(3-azabicyclo[3.1.1]heptan-3-yl)ethyl)carbamoyl)-2-methylpyridin-3-yl)-2-(1-methyl-1H-pyrazol-4-yl)pyrazolo[5,1-b]thiazole-7-carboxamide] | 0.4 | 5.8 | 26.2
